Assay results as given in patent US20260184663A1, “INDENE COMPOUNDS, PHARMACEUTICAL COMPOSITIONS THEREOF, AND THEIR THERAPEUTIC APPLICATIONS” (NucMito Pharmaceuticals co. Ltd., priority 2022, published 2026).
Read-outs that look alike come from different tables or passages of the source.

Experiments:
Assay type in all cases: cell-based
HepG2 (liver cancer) = assay: Antiproliferative activity (CCK-8 cell viability), HepG2; settings: Homo sapiens, 72 h; for inhibition at 3.3 µM: Compound concentration: 3.3 μM; for inhibition at 10 µM: Compound concentration: 10 μM; for inhibition at 30 µM: Compound concentration: 30 μM
Summary of the method: (§1)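 Growth inhibition graded in bands from percent viability against DMSO vehicle, read as CCK-8 absorbance at 450 nm. Compound tested at 3.3, 10 or 30 μM for 72 h, 37 °C; media contained 10% FBS: DMEM for HepG2/SW480, MEM for HeLa, F-12K for A549.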

SW480 (colon cancer) = assay: Antiproliferative activity (CCK-8 cell viability), SW480; settings: Homo sapiens, 72 h, read-out: Antiproliferative activity in cancerous cells, SW480 (inhibition of cell growth); for inhibition at 3.3 µM: Compound concentration: 3.3 μM; for inhibition at 10 µM: Compound concentration: 10 μM
Summary of the method: as §1

[1] = tested on: B16F10 (malignant melanoma); assay: Antiproliferative activity (CCK-8 cell viability), B16F10; settings: Mus musculus, 72 h, read-out: Antiproliferative activity in cancerous cells, B16F10 (inhibition of cell growth); for inhibition at 3.3 µM: B16-F10, Compound concentration: 3.3 μM; for inhibition at 10 µM: B16-F10, Compound concentration: 10 μM
Summary of the method: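 Cell growth inhibition was measured in B16F10 malignant melanoma cells with a Cell Counting Kit-8 viability assay. Cells were maintained in DMEM plus 10% fetal bovine serum, seeded at 2,000-5,000 cells/well in 96-well plates, and treated for 72 h at 37° C. Viability was expressed relative to DMSO-treated vehicle control wells.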

HeLa (cervical cancer) = assay: Antiproliferative activity (CCK-8 cell viability), HeLa; settings: Homo sapiens, 72 h; for inhibition at 3.3 µM: Compound concentration: 3.3 μM; for inhibition at 10 µM: Compound concentration: 10 μM; for inhibition at 30 µM: Compound concentration: 30 μM
Summary of the method: as §1

[2] = tested on: A431 (epidermoid carcinoma); assay: Antiproliferative activity (CCK-8 cell viability), A431; settings: Homo sapiens, 72 h, read-out: Antiproliferative activity in cancerous cells, A431 (inhibition of cell growth); for inhibition at 3.3 µM: A-431, Compound concentration: 3.3 μM; for inhibition at 10 µM: A-431, Compound concentration: 10 μM
Summary of the method: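 This growth inhibition assay used A431 cells maintained in Dulbecco's modified Eagle's medium plus 10% fetal bovine serum. Cells were seeded in 96-well plates, treated with compound for 72 h at 37° C., and then given 10 μL CCK-8 solution. After a further 4 h, absorbance was read at 450 nm.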

[3] = tested on: A549 (lung adenocarcinoma); assay: Antiproliferative activity (CCK-8 cell viability), A549; settings: Homo sapiens, 72 h; for inhibition at 3.3 µM: Compound concentration: 3.3 μM; for inhibition at 10 µM: Compound concentration: 10 μM; for inhibition at 30 µM: Compound concentration: 30 μM
Summary of the method: as §1

[4] = tested on: MDA-MB-231 (breast cancer); assay: Antiproliferative activity (CCK-8 cell viability), MDA-MB-231; settings: Homo sapiens, 72 h; for inhibition at 3.3 µM: Compound concentration: 3.3 μM; for inhibition at 10 µM: Compound concentration: 10 μM; for inhibition at 30 µM: Compound concentration: 30 μM
Summary of the method: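 Growth inhibition of human MDA-MB-231 breast cancer cells was assessed with a Cell Counting Kit-8. Cells cultured in DMEM plus 10% FBS were seeded at 2,000-5,000 cells/well, treated after attachment, and kept 72 h at 37° C. CCK-8 solution (10 μL) was added for 4 h, and absorbance at 450 nm was compared with DMSO-treated controls.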

[5] = tested on: alpha-smooth muscle actin (α-SMA); assay: Inhibition of TGF-β induced expression of alpha-smooth muscle actin (α-SMA) in CFSC cells (western blot); settings: compound at 10 μM, TGF-β (10 ng/mL), 24 hours, band intensity vs TGF-β only
Summary of the method: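 Values are percent reduction of α-SMA band intensity relative to cells given TGF-β alone, quantified by Western blot densitometry with β-actin probed. Compound was applied at 10 μM alongside 10 ng/mL TGF-β to serum-free CFSC cultures for 24 h at 37 °C.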

[6] = read-out: Antiproliferative activity in cancerous cells, HepG2 (inhibition of cell growth)
[7] = read-out: Antiproliferative activity in cancerous cells, HepG2
[8] = read-out: Antiproliferative activity in cancerous cells, HELA (inhibition of cell growth)
[9] = read-out: Antiproliferative activity in cancerous cells, HELA
[10] = read-out: Antiproliferative activity in cancerous cells, A549 (inhibition of cell growth)
[11] = read-out: Antiproliferative activity in cancerous cells, A549
[12] = read-out: Antiproliferative activity in cancerous cells, MDA-MB-231 (inhibition of cell growth)

Compound: O=C(O)CC1=C/C(=C/c2ccc(COc3ccccc3)cc2)c2ccc(F)cc21 [B3, (Z)-2-(5-Fluoro-1-(4-(phenoxymethyl)benzylidene)-1H-inden-3-yl)acetic acid]
- inhibition at 3.3 µM (HepG2 (liver cancer); [6]): 30 to 50%
- inhibition at 10 µM (HepG2 (liver cancer); [6]): 30 to 50%
- inhibition at 30 µM (HepG2 (liver cancer); [7]): < 30%
- inhibition at 3.3 µM (SW480 (colon cancer)): < 30%
- inhibition at 10 µM (SW480 (colon cancer)): 30 to 50%
- inhibition at 3.3 µM [1]: ≥ 50%
- inhibition at 10 µM [1]: ≥ 50%
- inhibition at 3.3 µM (HeLa (cervical cancer); [8]): < 30%
- inhibition at 10 µM (HeLa (cervical cancer); [8]): < 30%
- inhibition at 30 µM (HeLa (cervical cancer); [9]): < 30%
- inhibition at 3.3 µM [2]: < 30%
- inhibition at 10 µM [2]: 30 to 50%
- inhibition at 3.3 µM [3, 10]: 30 to 50%
- inhibition at 10 µM [3, 10]: ≥ 50%
- inhibition at 30 µM [3, 11]: 30 to 50%
- inhibition at 3.3 µM [4, 12]: ≥ 50%
- inhibition at 10 µM [4, 12]: ≥ 50%
- inhibition at 10 µM [5]: > 80%

Compound: O=C(O)CC1=C/C(=C/c2cccc(COc3ccccc3)c2)c2ccc(F)cc21 [A8, (Z)-2-(5-Fluoro-1-(3-(phenoxymethyl)benzylidene)-1H-inden-3-yl)acetic acid]
- inhibition at 3.3 µM (HepG2 (liver cancer); [6]): 30 to 50%
- inhibition at 10 µM (HepG2 (liver cancer); [6]): 30 to 50%
- inhibition at 3.3 µM (SW480 (colon cancer)): < 30%
- inhibition at 10 µM (SW480 (colon cancer)): 30 to 50%
- inhibition at 3.3 µM [1]: 30 to 50%
- inhibition at 10 µM [1]: ≥ 50%
- inhibition at 3.3 µM (HeLa (cervical cancer); [8]): ≥ 50%
- inhibition at 10 µM (HeLa (cervical cancer); [8]): ≥ 50%
- inhibition at 3.3 µM [2]: < 30%
- inhibition at 10 µM [2]: 30 to 50%
- inhibition at 3.3 µM [3, 10]: 30 to 50%
- inhibition at 10 µM [3, 10]: ≥ 50%
- inhibition at 3.3 µM [4, 12]: 30 to 50%
- inhibition at 10 µM [4, 12]: ≥ 50%
- inhibition at 10 µM [5]: > 80%

Compound: CC1=C(CC(=O)O)c2cc(C)ccc2/C1=C\c1ccc(COc2ccccc2)cc1 [B4, (Z)-2-(2,5-Dimethyl-1-(4-(phenoxymethyl)benzylidene)-1H-inden-3-yl)acetic acid]
- inhibition at 3.3 µM (HepG2 (liver cancer); [6]): 30 to 50%
- inhibition at 10 µM (HepG2 (liver cancer); [6]): < 30%
- inhibition at 30 µM (HepG2 (liver cancer); [7]): < 30%
- inhibition at 3.3 µM (SW480 (colon cancer)): < 30%
- inhibition at 10 µM (SW480 (colon cancer)): 30 to 50%
- inhibition at 3.3 µM [1]: ≥ 50%
- inhibition at 10 µM [1]: ≥ 50%
- inhibition at 3.3 µM (HeLa (cervical cancer); [8]): < 30%
- inhibition at 10 µM (HeLa (cervical cancer); [8]): 30 to 50%
- inhibition at 30 µM (HeLa (cervical cancer); [9]): 30 to 50%
- inhibition at 3.3 µM [2]: ≥ 50%
- inhibition at 10 µM [2]: < 30%
- inhibition at 3.3 µM [3, 10]: 30 to 50%
- inhibition at 10 µM [3, 10]: 30 to 50%
- inhibition at 30 µM [3, 11]: 30 to 50%
- inhibition at 3.3 µM [4, 12]: 30 to 50%
- inhibition at 10 µM [4, 12]: 30 to 50%
- inhibition at 30 µM ([4]; read-out: Antiproliferative activity in cancerous cells, MDA-MB-231): < 30%
- inhibition at 10 µM [5]: < 30%

Compound: CC1=C(CC(=O)O)c2cc(F)ccc2/C1=C/c1ccc(F)cc1OCc1ccccc1 [E5, (E)-2-(1-(2-(Benzyloxy)-4-fluorobenzylidene)-5-fluoro-2-methyl-1H-inden-3-yl)-acetic acid]
- inhibition at 3.3 µM (HepG2 (liver cancer); [6]): 30 to 50%
- inhibition at 10 µM (HepG2 (liver cancer); [6]): ≥ 50%
- inhibition at 30 µM (HepG2 (liver cancer); [6]): ≥ 50%
- inhibition at 3.3 µM (SW480 (colon cancer)): 30 to 50%
- inhibition at 10 µM (SW480 (colon cancer)): 30 to 50%
- inhibition at 30 µM (SW480 (colon cancer); Compound concentration: 30 μM): ≥ 50%
- inhibition at 3.3 µM [1]: ≥ 50%
- inhibition at 10 µM [1]: ≥ 50%
- inhibition at 30 µM ([1]; B16-F10, Compound concentration: 30 μM): ≥ 50%
- inhibition at 3.3 µM (HeLa (cervical cancer); [8]): < 30%
- inhibition at 10 µM (HeLa (cervical cancer); [8]): ≥ 50%
- inhibition at 30 µM (HeLa (cervical cancer); [8]): ≥ 50%
- inhibition at 3.3 µM [2]: < 30%
- inhibition at 10 µM [2]: 30 to 50%
- inhibition at 30 µM ([2]; A-431, Compound concentration: 30 μM): ≥ 50%
- inhibition at 3.3 µM [3, 10]: < 30%
- inhibition at 10 µM [3, 10]: ≥ 50%
- inhibition at 30 µM [3, 10]: ≥ 50%
- inhibition at 3.3 µM [4, 12]: 30 to 50%
- inhibition at 10 µM [4, 12]: 30 to 50%
- inhibition at 30 µM [4, 12]: ≥ 50%
- inhibition at 10 µM [5]: > 80%

Compound: O=C(O)CC1=C(Cc2ccc(Oc3ccc(F)cc3)cc2)/C(=C/c2cccc(C(F)(F)F)c2)c2ccc(F)cc21 [A109, (Z)-2-(5-Fluoro-2-(4-(4-fluorophenoxy)benzyl)-1-(3-(trifluoromethyl)-benzylidene)-1H-inden-3-yl)acetic acid]
- inhibition at 3.3 µM (HepG2 (liver cancer); [6]): < 30%
- inhibition at 10 µM (HepG2 (liver cancer); [6]): < 30%
- inhibition at 3.3 µM (SW480 (colon cancer)): < 30%
- inhibition at 10 µM (SW480 (colon cancer)): < 30%
- inhibition at 3.3 µM [1]: < 30%
- inhibition at 10 µM [1]: ≥ 50%
- inhibition at 3.3 µM (HeLa (cervical cancer); [8]): < 30%
- inhibition at 10 µM (HeLa (cervical cancer); [8]): ≥ 50%
- inhibition at 3.3 µM [2]: 30 to 50%
- inhibition at 10 µM [2]: ≥ 50%
- inhibition at 3.3 µM [3, 10]: ≥ 50%
- inhibition at 10 µM [3, 10]: ≥ 50%
- inhibition at 3.3 µM [4, 12]: ≥ 50%
- inhibition at 10 µM [4, 12]: ≥ 50%
- inhibition at 10 µM [5]: > 80%

Compound: CCc1ccc2c(c1)C(CC(=O)O)=C(C)/C2=C/c1ccc(Oc2ccc(F)cc2)cc1 [C5, (Z)-2-(5-Ethyl-1-(4-(4-fluorophenoxy)benzylidene)-2-methyl-1H-inden-3-yl)-acetic acid]
- inhibition at 3.3 µM (HepG2 (liver cancer); [6]): ≥ 50%
- inhibition at 10 µM (HepG2 (liver cancer); [6]): ≥ 50%
- inhibition at 3.3 µM (SW480 (colon cancer)): < 30%
- inhibition at 10 µM (SW480 (colon cancer)): < 30%
- inhibition at 3.3 µM [1]: < 30%
- inhibition at 10 µM [1]: ≥ 50%
- inhibition at 3.3 µM (HeLa (cervical cancer); [8]): < 30%
- inhibition at 10 µM (HeLa (cervical cancer); [8]): ≥ 50%
- inhibition at 3.3 µM [2]: ≥ 50%
- inhibition at 10 µM [2]: ≥ 50%
- inhibition at 3.3 µM [3, 10]: 30 to 50%
- inhibition at 10 µM [3, 10]: 30 to 50%
- inhibition at 3.3 µM [4, 12]: < 30%
- inhibition at 10 µM [4, 12]: ≥ 50%
- inhibition at 10 µM [5]: > 80%

Compound: O=C(O)CC1=C(CC2CCCC2)/C(=C/c2cccc(COc3ccccc3)c2)c2ccc(F)cc21 [A6, (Z)-2-(2-(Cyclopentylmethyl)-5-fluoro-1-(3-(phenoxymethyl)benzylidene)-1H-inden-3-yl)acetic acid]
- inhibition at 3.3 µM (HepG2 (liver cancer); [6]): ≥ 50%
- inhibition at 10 µM (HepG2 (liver cancer); [6]): ≥ 50%
- inhibition at 3.3 µM (SW480 (colon cancer)): < 30%
- inhibition at 10 µM (SW480 (colon cancer)): ≥ 50%
- inhibition at 3.3 µM [1]: ≥ 50%
- inhibition at 10 µM [1]: ≥ 50%
- inhibition at 3.3 µM (HeLa (cervical cancer); [8]): ≥ 50%
- inhibition at 10 µM (HeLa (cervical cancer); [8]): ≥ 50%
- inhibition at 3.3 µM [2]: ≥ 50%
- inhibition at 10 µM [2]: ≥ 50%
- inhibition at 3.3 µM [3, 10]: ≥ 50%
- inhibition at 10 µM [3, 10]: ≥ 50%
- inhibition at 3.3 µM [4, 12]: ≥ 50%
- inhibition at 10 µM [4, 12]: ≥ 50%
- inhibition at 10 µM [5]: > 80%
